Data as given in patent EP1787679A1, “Use of compounds binding to the sigma receptor for the treatment of diabetes-associated pain” (LABORATORIOS DEL DR. ESTEVE, S.A., priority 2005, dated 2007).

Tested on: STZ-induced mice
Test: von-Frey test, mechanical allodynia in streptozotocin (STZ)-induced diabetic mice
Type: in vivo
Conditions: paw withdrawal response to von-Frey filaments
From the text: The pancreatic β-cell cytotoxic agent STZ is widely used to induce diabetes in rodents. The glucosamine-nitrosourea compound STZ is taken up into the insulin-producing β-cells of the islets of Langerhan's via the GLUT-2 glucose transporter. The cytotoxic effect of STZ is mediated through a decrease in NAD levels, and the formation of intracellular free radicals leading to various toxic effects, including DNA-strand breaks (Schnedl et al., 1994). […] STZ-induced diabetic rodents show common features of human diabetes that include damage to the eye, kidney, blood vessels, and nervous system. Diabetic neuropathic pain occurs mainly due to the damage in the nervous system (Sima and Sugimoto, 1999).
Method: In the present study, diabetes is induced in mice by a single i.v. injection of STZ (200 mg/kg) as reported previously (Kamei et al., 1991; Rashid and Ueda, 2002). […] The plasma glucose level in the mice is measured in blood samples obtained from tail vein. […]
Thermal hyperalgesia and mechanical allodynia is measured at different time points (1-21 days) after STZ injection. Mechanical allodynia is measured using von-Frey filaments, a well-established method known by those skilled in the art, where the paw withdrawal response is measured. Similarly, thermal hyperalgesia is measured as the latency to paw withdrawal evoked by exposing the right hind paw to a thermal stimulus. […]

`CN1CCN(CCc2ccc(Cl)c(Cl)c2)CC1` [BD-1063, 1-(3,4-dichlorophenethyl)-4-methylpiperazine] was tested, and the “mechanical allodynia in the von-Frey test” value was “significantly antagonizes mechanical allodynia”.
